Reference: US4505908A, “7-Bromo-5-(2-halophenyl)-1H-2,3-dihydro-1,4-benzodiazepine pharmaceuticals” (priority 1981, dated 1985)

How the values were obtained:
[1] = Rotating rod test (muscular coordination impairing activity); conditions: mouse, in vivo, po
Description: The ability of muscular coordination is determined in the mouse by the rotating rod test according to Blum (1973).
For this test, only male NMRI mice are used, which can support themselves for five minutes on a rotating rod with a diameter of 4 cm at a rotational speed of 12 rotations per minute.
The test substances are administered orally to the animals one hour before the commencement of the test in the form of a 2% suspension in tylose solution. The animals are each placed twice for a period of 60 seconds onto the rotating rod. Animals which cannot support themselves on the rotating rod for a total of 110 seconds are regarded as having impaired muscular coordination. The dose which brings about an impairment in 50% of the animals is regarded as the ED50.
(§1) In columns 5 and 6 of the Table, the quotients which result from dividing the doses impairing muscular coordination or muscle tone by the anxiolytically effective doses are indicated.

[2] = Traction test (muscle relaxant activity / disturbance of muscle tone); conditions: mouse, in vivo, po
Description: In this test the influence of the test substances on the muscle tone is evaluated. The test substance is administered orally to mice. After 120 minutes the mice are suspended by their front paws on a thin, horizontally taut wire. The dose at which exactly half the animals fail to also grasp the wire with their hind paws within 5 seconds is regarded as the ED50.
as §1

[3] = Acute Toxicity (7-day, single application per os); conditions: in vivo, po, single application p.o., NMRI mouse on an empty stomach
Description: The acute 7-day toxicity is determined after a single application per os on the white NMRI mouse, on an empty stomach, and the LD50 values are calculated by means of electronic data processing through a probit analysis.

`COCC1CN=C(c2ccccc2Cl)c2cc(Br)ccc2N1C` (stereo not drawn) gave a selectivity ratio [1] of 1.11, a selectivity ratio [2] of 7.38 and an LD50 at 168 h [3] greater than 1470 mg/kg.

For `COCC1CN=C(c2ccccc2Cl)c2cc(Br)ccc2N1` (stereo not drawn) [Ex 2, 7-Bromo-2-methoxymethyl-5-(2-chlorophenyl)-1H-2,3-dihydro-1,4-benzodiazepin], the selectivity ratio [1] was 5.38, the selectivity ratio [2] was 54.2 and the LD50 at 168 h [3] was 1330 mg/kg.

`OCC1CN=C(c2ccccc2Cl)c2cc(Br)ccc2N1` (stereo not drawn) [Ex 4, 7-Bromo-2-hydroxymethyl-5-(2-chlorophenyl)-1H-2,3-dihydro-1,4-benzodiazepine] gave a selectivity ratio [1] of 8.6, a selectivity ratio [2] of 164 and an LD50 at 168 h [3] greater than 1370 mg/kg.

`CN1c2ccc(Br)cc2C(c2ccccc2Cl)=NCC1CO` (stereo not drawn) showed a selectivity ratio [1] of 1.3, a selectivity ratio [2] of 38.8 and an LD50 at 168 h [3] greater than 1470 mg/kg.
